Test [1] has as its target T1, Sodium- and chloride-dependent GABA transporter 1 (Homo sapiens, UniProt P30531). As to the kind of experiment: Inhibition of human GAT1 transfected in CHO cells assessed as [3H]GABA uptake after 20 mins by liquid scintillation counting analysis. The class given is cell-based.
Target sequence in this assay (P30531 whole entry): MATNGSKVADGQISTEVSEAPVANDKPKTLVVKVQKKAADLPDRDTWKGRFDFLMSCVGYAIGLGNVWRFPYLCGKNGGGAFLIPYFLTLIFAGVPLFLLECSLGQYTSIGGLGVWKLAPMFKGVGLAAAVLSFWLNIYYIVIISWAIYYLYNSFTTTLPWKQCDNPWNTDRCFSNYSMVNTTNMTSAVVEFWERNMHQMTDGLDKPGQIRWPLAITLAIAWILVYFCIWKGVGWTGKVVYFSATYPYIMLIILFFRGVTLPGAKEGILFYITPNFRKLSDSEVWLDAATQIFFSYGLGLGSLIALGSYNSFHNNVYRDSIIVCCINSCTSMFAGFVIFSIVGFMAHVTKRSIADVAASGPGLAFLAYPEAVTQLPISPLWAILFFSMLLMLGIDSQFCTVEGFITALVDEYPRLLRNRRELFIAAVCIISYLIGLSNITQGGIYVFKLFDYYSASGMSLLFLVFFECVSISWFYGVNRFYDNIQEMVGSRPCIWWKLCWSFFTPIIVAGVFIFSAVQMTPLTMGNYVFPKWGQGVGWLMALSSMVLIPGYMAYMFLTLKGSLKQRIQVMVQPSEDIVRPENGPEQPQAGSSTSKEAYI
For test [2], the target named is T2, Sodium- and chloride-dependent betaine transporter (Homo sapiens) (UniProt P48065).
T2 sequence (whole entry): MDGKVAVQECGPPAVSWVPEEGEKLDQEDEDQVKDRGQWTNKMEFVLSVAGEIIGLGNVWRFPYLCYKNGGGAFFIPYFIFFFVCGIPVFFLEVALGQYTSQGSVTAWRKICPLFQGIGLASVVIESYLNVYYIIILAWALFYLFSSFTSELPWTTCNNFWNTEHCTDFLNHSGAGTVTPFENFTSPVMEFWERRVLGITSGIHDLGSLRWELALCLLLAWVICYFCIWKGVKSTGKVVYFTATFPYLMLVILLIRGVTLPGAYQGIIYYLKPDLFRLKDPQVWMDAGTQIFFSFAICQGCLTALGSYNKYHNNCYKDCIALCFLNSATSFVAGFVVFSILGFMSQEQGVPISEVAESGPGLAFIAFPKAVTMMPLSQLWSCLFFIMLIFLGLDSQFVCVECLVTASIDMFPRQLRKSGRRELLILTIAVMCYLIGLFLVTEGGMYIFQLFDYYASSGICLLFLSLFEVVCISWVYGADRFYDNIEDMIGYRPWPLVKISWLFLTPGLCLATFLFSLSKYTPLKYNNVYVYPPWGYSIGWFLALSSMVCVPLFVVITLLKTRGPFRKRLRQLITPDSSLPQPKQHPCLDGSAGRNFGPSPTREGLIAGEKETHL
As to the kind of experiment: Inhibition of human BGT1 transfected in CHO cells assessed as [3H]GABA uptake at 100 uM after 20 mins by liquid scintillation counting analysis. It counts as cell-based.

The target of test [3] is T3, Sodium- and chloride-dependent betaine transporter (Homo sapiens, UniProt P48065).
T3 sequence (P48065 whole entry): T2 sequence (whole entry)
As to the kind of experiment: Inhibition of human BGT1 transfected in CHO cells assessed as [3H]GABA uptake after 20 mins by liquid scintillation counting analysis. The class given is cell-based.

The target of test [4] is T4, Sodium- and chloride-dependent GABA transporter 2 (Homo sapiens) (UniProt Q9NSD5).
T4 sequence (whole entry): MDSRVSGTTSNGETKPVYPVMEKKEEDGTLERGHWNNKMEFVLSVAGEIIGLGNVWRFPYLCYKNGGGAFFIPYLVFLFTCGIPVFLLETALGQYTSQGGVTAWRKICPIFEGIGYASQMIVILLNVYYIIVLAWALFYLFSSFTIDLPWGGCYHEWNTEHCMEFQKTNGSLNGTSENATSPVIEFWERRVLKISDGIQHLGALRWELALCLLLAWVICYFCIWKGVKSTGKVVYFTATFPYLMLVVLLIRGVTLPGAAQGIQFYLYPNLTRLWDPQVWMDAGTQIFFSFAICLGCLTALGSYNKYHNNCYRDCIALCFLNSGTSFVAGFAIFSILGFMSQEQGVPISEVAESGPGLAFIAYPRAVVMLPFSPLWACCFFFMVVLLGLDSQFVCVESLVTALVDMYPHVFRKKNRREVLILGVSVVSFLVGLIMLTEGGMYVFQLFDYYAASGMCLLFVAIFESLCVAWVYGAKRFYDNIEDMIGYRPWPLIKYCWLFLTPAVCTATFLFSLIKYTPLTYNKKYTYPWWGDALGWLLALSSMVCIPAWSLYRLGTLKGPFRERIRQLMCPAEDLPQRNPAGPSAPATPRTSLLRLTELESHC
As to the kind of experiment: Inhibition of human GAT2 transfected in CHO cells assessed as [3H]GABA uptake at 100 uM after 20 mins by liquid scintillation counting analysis. It counts as cell-based.

The target in test [5] is T5, Sodium- and chloride-dependent GABA transporter 2 (Homo sapiens, UniProt Q9NSD5).
T5 sequence (Q9NSD5 whole entry): T4 sequence (whole entry)
As to the kind of experiment: Inhibition of human GAT2 transfected in CHO cells assessed as [3H]GABA uptake after 20 mins by liquid scintillation counting analysis. It counts as cell-based.

Test [6] concerns the target T1, Sodium- and chloride-dependent GABA transporter 1. As to the kind of experiment: Inhibition of human GAT1 transfected in CHO cells assessed as [3H]GABA uptake at 100 uM after 20 mins by liquid scintillation counting analysis. It counts as cell-based.
Target sequence in this assay (P30531 whole entry, looked up): as the sequence (P30531 whole entry) above
The target in test [7] is T6, Sodium- and chloride-dependent GABA transporter 3 (Homo sapiens) (UniProt P48066).
T6 sequence (whole entry): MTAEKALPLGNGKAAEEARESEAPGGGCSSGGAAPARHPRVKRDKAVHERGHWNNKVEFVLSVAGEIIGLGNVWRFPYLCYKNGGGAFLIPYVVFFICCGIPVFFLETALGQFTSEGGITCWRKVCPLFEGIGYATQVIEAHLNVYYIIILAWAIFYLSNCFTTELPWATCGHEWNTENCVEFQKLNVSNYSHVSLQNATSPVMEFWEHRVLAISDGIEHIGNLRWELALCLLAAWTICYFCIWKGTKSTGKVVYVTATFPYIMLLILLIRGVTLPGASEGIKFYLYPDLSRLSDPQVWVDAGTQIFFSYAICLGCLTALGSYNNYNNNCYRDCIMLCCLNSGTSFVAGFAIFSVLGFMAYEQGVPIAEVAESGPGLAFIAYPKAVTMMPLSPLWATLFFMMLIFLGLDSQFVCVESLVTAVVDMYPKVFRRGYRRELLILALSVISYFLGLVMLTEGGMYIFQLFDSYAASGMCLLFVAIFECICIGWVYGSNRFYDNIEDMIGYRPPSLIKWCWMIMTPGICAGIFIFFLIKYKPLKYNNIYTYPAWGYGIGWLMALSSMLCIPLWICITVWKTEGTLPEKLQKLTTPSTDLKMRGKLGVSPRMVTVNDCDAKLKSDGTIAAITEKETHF
The note with it: CHO, 100 uM.
Description: Inhibition of human GAT3 transfected in CHO cells assessed as [3H]GABA uptake at 100 uM after 20 mins by liquid scintillation counting analysis

Test [8] deals with T7, Sodium- and chloride-dependent GABA transporter 3 (Homo sapiens, UniProt P48066).
T7 sequence (P48066 whole entry): T6 sequence (whole entry)
As to the kind of experiment: Inhibition of human GAT3 transfected in CHO cells assessed as [3H]GABA uptake after 20 mins by liquid scintillation counting analysis. It counts as cell-based.

SMILES strings stand for the structures. Activity calls are given as the source filed them. The rule behind the calls is not given here. Some results are limits rather than exact numbers.

With `COc1ccc(C(OCCN2CCC[C@H](C(=O)O)C2)(c2ccc(OC)cc2)c2ccc(OC)cc2)cc1`, the IC50 in test [1] was more than 100 µM.

Regarding `N[C@@]12CC[C@H](C(=O)O)[C@@H]1C2`, the inhibition in test [2] amounted to 97.6%; in test [4] it was 29%; in test [6] it was 12.2%; in test [7] it was 48.2%. The half-maximal inhibitory concentration (IC50) was 0.59 µM in test [3], more than 100 µM in test [5], more than 100 µM in test [1] and 76.3 µM in test [8].

`N[C@@]12CC[C@@H](C(=O)O)[C@@H]1C2`: the inhibition in test [2] came out at 63.9%. The inhibition result in test [4], in test [6] and in test [7] was “inactive” throughout.

Regarding `NCCC(=O)O` [BETA-ALANINE], in test [5], the concentration for half-maximal inhibition (IC50) is more than 100 µM.

With `COc1ccccc1C1(O)CCN(CCCn2c3ccccc3c3ccccc32)CC1`, the 50% inhibitory concentration (IC50) worked out at 6.2 µM in test [5], 11.4 µM in test [1] and 8.92 µM in test [8].

Take `N[C@H]1C[C@H]1CC(=O)O`: the inhibition result in test [2] and in test [7] was “Active” in each case. In addition, the IC50 was 5.48 µM in test [3], 36.9 µM in test [5], more than 100 µM in test [1] and 13.9 µM in test [8].

Usually IC50 stands for the concentration at which inhibition is half-maximal. Usually inhibition stands for the drop in the measured response relative to a control, in per cent.

Values taken from ChEMBL document CHEMBL3351485 (ACS Med Chem Lett, 2014).
